Measured values reported in US8088951B2, “Epigenetic mechanisms re-establish access to long-term memory after neuronal loss” (Massachusetts Institute of Technology, priority 2006, dated 2012).
Entries after “also recorded” stand apart in the source; their conditions may differ.

Legend:
Type in all cases: in vivo
C57BL/6J mice = test: Water maze paradigm (spatial learning) in wild type mice; details: daily ip for 4 weeks; vs vehicle group; P<0.0001
From the text: (§1) Learning tests: All behavioral testing is described in Fischer et al. (3).
Mechanism underlying EE. Other than a few genes involved in synaptic function, relatively little is known about the mechanism underlying EE (12-14). Since histone acetylation, an epigenetic mechanism regulating gene expression via chromatin remodeling, has recently been implicated in synaptic plasticity and learning behavior (15-18), the induction of a transcriptional program by EE that leads to activation of plasticity genes was evaluated. Wild type mice were subjected to EE and hippocampal and cortical brain lysates were obtained 3, 24 h or 2 weeks later (n=3/group) by acid extraction and probed with antibodies detecting histone-tail modification that indicate active chromatin. Increases in hippocampal H3 (K-9, K14) and H4 (K-5) and in cortical H3 (K-9) and H4 (K-5) acetylation were observed. […] No changes in H4 acetylation were observed when the Ac-H4 (K,8,12,16) antibody was used, which is likely due to the fact that H4-K16 is a marker of condensed chromatin. EE induced hippocampal and cortical histone 3 (H3) and histone 4 (H4) acetylation and methylation as soon as 3 hours after treatment (FIGS. 3a, b). […]
The over expression of HDAC2 impairs spatial learning. […] The swimming path of the mice was recorded by a video camera and analyzed by the Videomot 2 software (TSE). […]

CK-p25 Tg mice [1] = test: Water maze learning in CK-p25 Tg mice after neurodegeneration; details: 6 weeks p25 induction, then daily 1.2 g/kg for 4 weeks, vs vehicle, P<0.0001
From the text: as §1
Reinstatement of learning behavior through inhibition of HDAC. Whether sustained inhibition of HDACs would reinstate learning behavior and recover access to long-term memories in CK-p25 Tg mice that had developed synaptic and neuronal loss was investigated. P25 was induced in 11 month old CK-p25 Tg mice for 6 weeks. Afterwards p25 expression was repressed and one group of CK-p25 Tg mice was subjected to daily sodiumbutyrate (SB) injection (1.2 g/kg) for 4 weeks (n=9), whereas the other group received saline injection (n=9). […] To this end p25 expression was induced in 11-month old CK-p25 mice for 6 weeks, before one group was injected daily for 4 weeks with SB whereas the control group received saline injection (FIG. 4a).

[2] = tested on: MAP-2, synaptophysin (SVP), synaptic marker proteins; test: Synaptic plasticity markers in CK-p25 Tg mice (immunostaining, immunoblot)
Experimental: Immunoblotting and staining: Lysates for immunoblotting were prepared as described by Fischer et al. (3). To isolate histones, brain tissue was homogenized in TX-buffer (50 mM Tris HCL, 150 mM NACL, 2 mM EDTA, 1% Triton-100) and incubated at 4° C. for 15 min prior to centrifugation at 200 rpm for 10 min. After a wash-step in TX-buffer the pellet was dissolved in TX-buffer containing 0.2M HCl and incubated on ice for 30 min, before a second centrifugation at 10000 rpm for 10 min. The supernatant was either dialysed or directly used for immunoblotting. Antibodies were used in 1:1000 concentrations. All antibodies detecting histones and anti-PSD-95 were form Upstate (Lake Placid, N.Y.). Anti-synaptophysin (SVP38) was from Sigma. Anti-neuronal nuclei (neuN) and anti-growth associated protein (Gap43) were from Chemicon (Temecula, Calif.) and anti-N-cadherin, anti-β-catenin were from Santa Cruz (Santa Cruz, Calif.). Immunostaining was performed as described by Fischer et al. (3). Antibodies mentioned above were used in a 1:500 dilution. Anti-MAP-2 antibody (Sigma) was used in a 1:200 dilution.
LSMeta10 software (Zeiss; Jena, Germany) was used to calculate the mean SVP intensity. Brain sections with the strongest intensity were scanned first. All other images included in the analysis where scanned using the same microscope setting. […] Scale bar: 20 μm. py, pyramidal cell layer (FIG. 1g).
For SB treatment, p25 was induced in 11 month old CK-p25 Tg mice for 6 weeks. Afterwards p25 expression was repressed and one group of CK-p25 Tg mice was subjected to daily sodiumbutyrate (SB) injection (1.2 g/kg) for 4 weeks, whereas the other group received saline injection. […] Representative images showing hippocampal MAP-2 staining are depicted in FIG. 7f. MAP-2 immunoreactivity of CK-p25 Tg mice treated with SB is increased when compared to the vehicle group. Representative images showing NeuN staining of the ACC.

CK-p25 Tg mice [3] = test: Recovery of long-term spatial memories in CK-p25 Tg mice (water maze reminder-training); details: daily injection after 6 weeks p25 expression
From the text: Recovery of spatial memories upon environmental enrichment and sodiumbutyrate injection. CK-p25 Tg mice in which p25 expression was repressed and control mice were trained in the water maze paradigm until all mice reliably found the hidden platform. Afterwards all mice were returned to their home cages for 4 weeks to allow the consolidation of hippocampus independent long-term memories. Afterwards p25 expression was induced for 6 weeks, followed by p25 repression. […] To measure the retrieval of long-term memory mice were instead exposed to only 2 reminder-training sessions on a single day. […] The recovery of spatial memories upon environmental enrichment was evaluated by a similar experiment, except that after 6 weeks of p25 expression mice were either subjected to EE or returned to their home cages for 4 weeks. […] To evaluate the recovery of spatial memories upon SB injection, a similar experiment was performed as described above, but instead of EE, one group of CK-p25 Tg mice (n=10) received daily injection of SB, whereas the other group was injected with vehicle (n=10).

Question: How did the “escape latency in water maze paradigm” value (C57BL/6J mice) turn out when `CCCC(=O)[O-].[Na+]` [SB, sodiumbutyrate] was run?
Answer: shorter escape latency

Question: What about the “spatial learning (escape latency)” value (CK-p25 Tg mice [1]) of the same molecule?
Answer: significantly shorter escape latency

Question: What about the “levels of synaptic marker proteins (markers for synaptic plasticity and integrity)” value ([2]; CK-p25 Tg mice, daily 1.2 g/kg for 4 weeks, hippocampus and cortex, vs vehicle) of the same molecule?
Answer: increased levels of synaptic marker proteins; also recorded: several markers for synaptic plasticity and integrity were increased

Question: What about the “hippocampal MAP-2 immunoreactivity” value ([2]; CK-p25 Tg mice, daily 1.2 g/kg for 4 weeks, vs vehicle) of the same molecule?
Answer: increased

Question: And the “levels of synaptic marker proteins” value ([2]; CK-p25 Tg mice, long-term memory experiment, vs vehicle group)?
Answer: elevated levels of synaptic marker proteins

Question: What about the “MAP-IR in the ACC” value ([2]; CK-p25 Tg mice, vs vehicle treated) of the same molecule?
Answer: MAP-IR was increased

Question: And the “hippocampal SVP-IR” value ([2]; CK-p25 mice, vs vehicle-injected, P<0.0001)?
Answer: increased hippocampal SVP-IR

Question: What about the “recovery of long-term spatial memories” value (CK-p25 Tg mice [3]) of the same molecule?
Answer: leads to the recovery of long-term spatial memories; also recorded: spatial long-term memories recover after neuronal loss
